The values that follow come from PubChem BioAssay (NCI).

Assay in all cases: NCI-60 cell line screen, 48 h
The test system of assay [1] is M14 melanoma.
Assay [2] relates to OVCAR-8 ovarian.
Assay [3] relates to ACHN renal.
In assay [4] the test system is UACC-62 melanoma.
Assay [5] concerns UACC-257 melanoma.
The subject of assay [6] is OVCAR-3 ovarian.
Assay [7] deals with OVCAR-4 ovarian.
Assay [8] concerns SF-539 CNS.
In assay [9] the test system is HOP-18 NSCLC.
The test system of assay [10] is SR leukemia.

Structures are written as SMILES. Values joined by “and” are separate entries in the source; they are usually repeats but may differ in a detail not shown here. Equal entries are not always repeated.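 Following 48 hours of exposure in 96-well plates, responses at five concentrations were used to interpolate endpoints linearly. Abbreviation: GI50, concentration required for 50% inhibition of growth. TGI: total growth inhibition.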

`CN(C)CCC(/C=C/c1ccccc1)=N\Nc1c(F)c(F)c(F)c(F)c1F`: the TGI in [1], in assay [2], in assay [3], in assay [4], in [5] and in [6] was greater than 100 µM throughout. Moreover, the TGI in [7], in [8], in assay [9] and in [10] was greater than 100 µM throughout.
For the compound `O=C([CH-]C(=O)c1ccccc1)c1ccccc1.[CH2-]C.[CH2-]C.[Tl+3]`, the GI50 in assay [1] is 18.5 µM; in assay [2] it was 15.7 µM; in assay [3] it was 24.5 µM; in assay [4], 20.8 µM; in [5], 45.6 µM; in assay [6], 28 µM. The GI50 in assay [7] was 16.8 µM; in [8], 23.2 µM; in assay [9], 28.5 µM; in assay [10] it was 6.35 µM. In addition, the TGI in assay [1] was 68.5 µM; in [2] it was greater than 86.5 µM; in assay [3] it was 98.7 µM; in assay [4], 87.6 µM; in assay [5] it was greater than 100 µM; in assay [6], greater than 100 µM. Further, the TGI in [7] is greater than 100 µM; in assay [8], 86 µM; in [9], greater than 100 µM; in [10] it was 50.1 µM.
On to `Cc1cccc(NC(=O)CSc2nnc(-c3ccc(N=Cc4ccc(Cl)cc4)cc3)o2)c1`, for which the TGI in assay [1], in assay [2], in [3], in assay [4], in assay [5] and in assay [7] was greater than 100 µM each time. For the same compound, the TGI in assay [9] and in assay [10] was greater than 100 µM each time.
With `Nc1nc2c(ncn2C2OC(CO)C(O)C2O)c(=O)[nH]1` (stereo not drawn), the GI50 in [2] was > 100 µM and 15 µM; in assay [3] it was greater than 100 µM; in assay [4], greater than 100 µM; in assay [5] it was > 100 µM and 20.8 µM; in assay [7], greater than 100 µM; in [8], greater than 100 µM. Also, the GI50 in assay [10] was greater than 100 µM. The TGI in [2] was > 100 µM and 204 µM; in [3], greater than 100 µM; in assay [4], > 100 µM and 175 µM; in assay [5], > 100 µM and 282 µM; in assay [6] it was 235 µM; in assay [7] it was > 100 µM and 215 µM. Also, the TGI in assay [8] was > 100 µM and 160 µM; in [9], 300 µM; in assay [10], greater than 100 µM.
As for `Cc1nc(Nc2ccc(Cl)c(Cl)c2)sc1C(/C=C/c1ccc2c(c1)OCO2)=N/Nc1ccc([N+](=O)[O-])cc1[N+](=O)[O-]`, the TGI in [1] was greater than 100 µM; in assay [2] it was greater than 100 µM; in assay [3], greater than 100 µM; in assay [4], greater than 88 µM; in assay [5] it was greater than 100 µM; in assay [6] it was greater than 100 µM. The TGI was greater than 100 µM in [7], greater than 91.6 µM in assay [8], greater than 100 µM in [9] and greater than 100 µM in assay [10].
`O=C(O)c1cc2ccc(Cl)cc2c(O)c1C1=CCCCC1`: the TGI was greater than 100 µM in assay [1]; greater than 100 µM in assay [2]; greater than 100 µM in assay [3]; 77.5 µM in assay [4]; 88.5 µM in [5]; greater than 100 µM in [6]. For the same compound, the TGI was 57.2 µM in assay [7], greater than 100 µM in assay [8], greater than 100 µM in assay [9] and greater than 100 µM in [10].
Consider `Cc1cc(N(CCC#N)CCC#N)ccc1/C=C1N=C(/C=C\c2ccccc2)N(c2ccc(C(=O)O)cc2)C\1=O`, for which the TGI in [1], in [2], in assay [3], in assay [4], in assay [5] and in assay [6] was greater than 100 µM throughout. For the same compound, the TGI in assay [7], in assay [8], in assay [9] and in [10] was greater than 100 µM throughout.
Take `CCCC/C=C1/CCC(CN(C)C)C1=O` (stereo not drawn): the TGI in assay [1] was 3.26 µM; in assay [2] it was 4.08 µM; in [3], 4.6 µM; in assay [4], 4.96 µM; in assay [5], 5.26 µM; in assay [6], 3.72 µM. Also, the TGI in assay [7] came to 8.27 µM; in [8], 6.05 µM; in [9], 5.56 µM; in assay [10] it was 2.99 µM.
In the case of `COc1ccc(C2C(C(=O)O)=C(COC(C)=O)Oc3cc4c(cc32)OCO4)c(OC)c1` (stereo not drawn), the TGI in assay [1], in assay [2], in assay [3], in [4], in assay [5] and in assay [6] was greater than 100 µM in each case. Also, the TGI in [7], in [8] and in assay [9] was greater than 100 µM throughout.
Consider `Nc1cccc(C(=O)/C=C/c2ccccc2O)c1`, for which the TGI in assay [1], in [2], in assay [3], in assay [4], in assay [5] and in [6] was greater than 100 µM each time. In addition, the TGI in assay [8], in assay [9] and in assay [10] was greater than 100 µM each time.
Turning to `O=C(Nc1c(Cl)cc([N+](=O)[O-])cc1Cl)C(=O)C(C(=O)c1ccncc1)C1OC(=O)c2ccccc21` (stereo not drawn), the TGI in assay [1], in [2], in assay [3], in [4], in assay [5] and in assay [6] was greater than 100 µM throughout. The TGI in assay [7], in [9] and in assay [10] was greater than 100 µM each time.
For the compound `Cc1c(C(=O)/C=C/c2ccc3c(c2)OCO3)[n+](=O)c2ccccc2n1[O-]`, the TGI was greater than 100 µM in assay [1]; 62.9 µM in assay [2]; greater than 100 µM in assay [3]; 75.2 µM in assay [4]; greater than 100 µM in assay [5]; 83.3 µM in assay [6]. For the same compound, the TGI in [7] is greater than 100 µM; in [8] it was 49.3 µM; in assay [9] it was greater than 100 µM; in [10], greater than 100 µM.
Turning to `CCOC(=O)c1cnc2c(ccc3ncccc32)c1OCC`, the TGI in assay [1], in assay [2], in assay [3], in assay [4], in assay [5] and in assay [6] was greater than 100 µM each time. In addition, the TGI in assay [7], in assay [8], in assay [9] and in assay [10] was greater than 100 µM each time.
On to `NC(=O)N1N=C2c3ccccc3OC[C@H]2[C@@H]1c1ccccc1`, for which the TGI was 5.59 µM in assay [1]; 27.2 µM in assay [2]; greater than 100 µM in assay [3]; 19.9 µM in assay [4]; greater than 100 µM in assay [5]; greater than 76.3 µM in assay [6]. Further, the TGI in [7] is greater than 100 µM; in [8], 19.1 µM; in [9] it was greater than 100 µM; in assay [10] it was 56 µM.
On to `COc1cc2ccc(CC(=O)O)cc2cc1OC`, for which the TGI in assay [1], in assay [2], in assay [3], in [4], in assay [5] and in assay [6] was greater than 100 µM throughout. For the same compound, the TGI in assay [7], in assay [9] and in [10] was greater than 100 µM in each case.
For the compound `CCOc1ccc(N=Nc2c(-c3ccccc3)nn(C(=O)CC(=O)Nc3ccccc3Cl)c2-c2ccccc2)cc1`, the TGI in [1], in assay [2], in assay [3], in assay [4], in [5] and in [6] was greater than 100 µM in each case. The TGI in [7], in [8], in [9] and in assay [10] was greater than 100 µM each time.
As to `CCOC(=O)C(=O)Nc1nc2ccc(OC)cc2s1`, the TGI in [1], in assay [2], in assay [3], in assay [4], in assay [5] and in assay [6] was greater than 100 µM throughout. The TGI in assay [7], in assay [8] and in assay [9] was greater than 100 µM each time.
For the compound `COc1ccc(C2NC(c3ccc(OC)cc3)C(C)C(=O)C2C)cc1` (stereo not drawn), the TGI in [1], in assay [2], in assay [3], in assay [4], in assay [5] and in assay [6] was greater than 100 µM in each case. Besides, the TGI in assay [7], in [8] and in [9] was greater than 100 µM in each case.
